Tested on: 186277-243-T-J2-PDC multi-cell spheroid viability
Experiment: Anticancer human tumor 186277-243-T-J2-PDC patient-derived colon adenocarcinoma cell line growth inhibition [PI3K]
Settings: for IC50: curve of first compound; for viability, T/C: stronger effect = lower value
In short: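 Combination activity was assessed by viability in multicellular tumor spheroids carrying HUVEC and MSC components. Agents were tested with PI3K inhibitors from a Cmax-based top dose (or 10 microM) downward in half-log increments.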
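Note: spheroids exposed to compounds for seven days before viability reading.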
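Throughout, for viability, T/C: 100% = DMSO vehicle control viability.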

Question: Which IC50 (second compound 0.00316 µM) does the source give for `Cn1nccc1Nc1nccc(-c2ccn(C(CO)c3ccc(Cl)c(F)c3)c(=O)c2)n1` (configuration not stated) + CC(Nc1ccc2c(c1)OCCn1cc(N3C(=O)OCC3C(F)F)nc1-2)C(N)=O here?
Answer: 1870 nM

Question: And the IC50 (second compound 0.01 µM)?
Answer: 1770 nM

Question: And the IC50 (second compound 0.0316 µM)?
Answer: 1470 nM

Question: And the IC50 (second compound 0.1 µM)?
Answer: 377 nM

Question: And the IC50 (second compound 0.316 µM)?
Answer: 74.7 nM

Question: And the IC50 (second compound 1 µM)?
Answer: < 31.6 nM

Question: And the viability, T/C (second compound 0.00316 µM, first compound 0.0316 µM)?
Answer: 105%

Question: What about the viability, T/C (second compound 0.00316 µM, first compound 0.1 µM) of the same compound?
Answer: 114%

Question: What about the viability, T/C (second compound 0.00316 µM, first compound 0.316 µM) of the same compound?
Answer: 113%

Question: And the viability, T/C (second compound 0.00316 µM, first compound 1 µM)?
Answer: 69.3%

Question: And the viability, T/C (second compound 0.00316 µM, first compound 3.16 µM)?
Answer: 37.2%

Question: What about the viability, T/C (second compound 0.00316 µM, first compound 10 µM) of the same compound?
Answer: 22.8%

Question: What about the viability, T/C (second compound 0.01 µM, first compound 0.0316 µM) of the same compound?
Answer: 111%

Question: What about the viability, T/C (second compound 0.01 µM, first compound 0.1 µM) of the same compound?
Answer: 121%

Question: And the viability, T/C (second compound 0.01 µM, first compound 0.316 µM)?
Answer: 109%

Question: And the viability, T/C (second compound 0.01 µM, first compound 1 µM)?
Answer: 67.3%

Question: And the viability, T/C (second compound 0.01 µM, first compound 3.16 µM)?
Answer: 33.5%

Question: What about the viability, T/C (second compound 0.01 µM, first compound 10 µM) of the same compound?
Answer: 22%

Question: And the viability, T/C (second compound 0.0316 µM, first compound 0.0316 µM)?
Answer: 103%

Question: What about the viability, T/C (second compound 0.0316 µM, first compound 0.1 µM) of the same compound?
Answer: 110%

Question: What about the viability, T/C (second compound 0.0316 µM, first compound 0.316 µM) of the same compound?
Answer: 98.4%

Question: What about the viability, T/C (second compound 0.0316 µM, first compound 1 µM) of the same compound?
Answer: 61.1%

Question: And the viability, T/C (second compound 0.0316 µM, first compound 3.16 µM)?
Answer: 28.1%

Question: And the viability, T/C (second compound 0.0316 µM, first compound 10 µM)?
Answer: 20.9%

Question: And the viability, T/C (second compound 0.1 µM, first compound 0.0316 µM)?
Answer: 124%

Question: And the viability, T/C (second compound 0.1 µM, first compound 0.1 µM)?
Answer: 86.5%

Question: And the viability, T/C (second compound 0.1 µM, first compound 0.316 µM)?
Answer: 54.2%

Question: What about the viability, T/C (second compound 0.1 µM, first compound 1 µM) of the same compound?
Answer: 28.9%

Question: What about the viability, T/C (second compound 0.1 µM, first compound 3.16 µM) of the same compound?
Answer: 16.4%

Question: What about the viability, T/C (second compound 0.1 µM, first compound 10 µM) of the same compound?
Answer: 7.14%

Question: What about the viability, T/C (second compound 0.316 µM, first compound 0.0316 µM) of the same compound?
Answer: 70.4%

Question: What about the viability, T/C (second compound 0.316 µM, first compound 0.1 µM) of the same compound?
Answer: 44.5%

Question: What about the viability, T/C (second compound 0.316 µM, first compound 0.316 µM) of the same compound?
Answer: 20.3%

Question: What about the viability, T/C (second compound 0.316 µM, first compound 1 µM) of the same compound?
Answer: 15.9%

Question: And the viability, T/C (second compound 0.316 µM, first compound 3.16 µM)?
Answer: 9.67%

Question: What about the viability, T/C (second compound 0.316 µM, first compound 10 µM) of the same compound?
Answer: 4.2%

Question: What about the viability, T/C (second compound 1 µM, first compound 0.0316 µM) of the same compound?
Answer: 38.1%

Question: And the viability, T/C (second compound 1 µM, first compound 0.1 µM)?
Answer: 29.4%

Question: What about the viability, T/C (second compound 1 µM, first compound 0.316 µM) of the same compound?
Answer: 14.2%

Question: What about the viability, T/C (second compound 1 µM, first compound 1 µM) of the same compound?
Answer: 9.05%

Question: What about the viability, T/C (second compound 1 µM, first compound 3.16 µM) of the same compound?
Answer: 10.6%

Question: What about the viability, T/C (second compound 1 µM, first compound 10 µM) of the same compound?
Answer: 3.67%
